pIC50: −log10 of the molar value. A value given as a limit tells only on which side of the number the result lay.

Activity, IC50 and Selectivity ratio data for three compounds are collected here from ChEMBL document CHEMBL1157410, “7-aryl 1,5-dihydro-benzo[e][1,4]oxazepin-2-ones and analogs as non-steroidal progesterone receptor antagonists” (Bioorg Med Chem, 2008).

One experiment deals with Rattus norvegicus. Nature of the experiment: Activity in ovariectomized rat assessed as inhibition of progesterone-induced decidualization at 3 mg/kg, po. More on the design: scale not given: the % may be the effect or the level left. The class given is functional.
The next experiment addresses T1, Glucocorticoid receptor (Homo sapiens, UniProt P04150).
T1 sequence (P04150 whole entry): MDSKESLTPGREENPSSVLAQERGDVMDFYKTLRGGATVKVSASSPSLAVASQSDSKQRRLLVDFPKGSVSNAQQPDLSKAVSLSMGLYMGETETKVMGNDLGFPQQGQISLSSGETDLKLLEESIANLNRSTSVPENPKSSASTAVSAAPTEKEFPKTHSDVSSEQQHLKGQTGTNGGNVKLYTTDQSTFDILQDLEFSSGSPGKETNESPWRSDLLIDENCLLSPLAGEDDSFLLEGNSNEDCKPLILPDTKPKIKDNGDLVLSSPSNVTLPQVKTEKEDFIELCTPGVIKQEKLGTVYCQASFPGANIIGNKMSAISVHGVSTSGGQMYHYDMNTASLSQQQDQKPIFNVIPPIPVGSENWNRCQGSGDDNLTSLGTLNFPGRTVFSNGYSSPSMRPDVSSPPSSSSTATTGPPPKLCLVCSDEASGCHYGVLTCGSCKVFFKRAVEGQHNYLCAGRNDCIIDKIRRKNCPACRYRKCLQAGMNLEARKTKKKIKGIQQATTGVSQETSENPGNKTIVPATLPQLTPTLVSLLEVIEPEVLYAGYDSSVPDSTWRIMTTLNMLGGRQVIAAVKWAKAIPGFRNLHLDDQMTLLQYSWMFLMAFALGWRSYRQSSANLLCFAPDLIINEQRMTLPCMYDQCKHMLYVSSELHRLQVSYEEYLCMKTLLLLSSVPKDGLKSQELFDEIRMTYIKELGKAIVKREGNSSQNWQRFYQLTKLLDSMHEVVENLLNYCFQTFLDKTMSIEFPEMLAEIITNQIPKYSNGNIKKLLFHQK
Nature of the experiment: Antagonist activity at cloned glucocorticoid receptor-ligand binding domain expressed in african green monkey COS7 cells by GAL4 luciferase reporter assay. The class given is cell-based, COS-7. A general note: In a reporter assay the amount or activity of a reporter protein is the signal.

Experiment [1] in a line: Selectivity for progesterone receptor over estrogen receptor.
Experiment [2] is described as follows: Selectivity for progesterone receptor over androgen receptor.
Experiment [3] in a line: Selectivity for progesterone receptor over glucocorticoid receptor.
The nature of experiment [4]: Selectivity for progesterone receptor over mineralocorticoid receptor.
The target in a further experiment is T2, Androgen receptor (Homo sapiens, UniProt P10275).
T2 sequence (P10275 whole entry): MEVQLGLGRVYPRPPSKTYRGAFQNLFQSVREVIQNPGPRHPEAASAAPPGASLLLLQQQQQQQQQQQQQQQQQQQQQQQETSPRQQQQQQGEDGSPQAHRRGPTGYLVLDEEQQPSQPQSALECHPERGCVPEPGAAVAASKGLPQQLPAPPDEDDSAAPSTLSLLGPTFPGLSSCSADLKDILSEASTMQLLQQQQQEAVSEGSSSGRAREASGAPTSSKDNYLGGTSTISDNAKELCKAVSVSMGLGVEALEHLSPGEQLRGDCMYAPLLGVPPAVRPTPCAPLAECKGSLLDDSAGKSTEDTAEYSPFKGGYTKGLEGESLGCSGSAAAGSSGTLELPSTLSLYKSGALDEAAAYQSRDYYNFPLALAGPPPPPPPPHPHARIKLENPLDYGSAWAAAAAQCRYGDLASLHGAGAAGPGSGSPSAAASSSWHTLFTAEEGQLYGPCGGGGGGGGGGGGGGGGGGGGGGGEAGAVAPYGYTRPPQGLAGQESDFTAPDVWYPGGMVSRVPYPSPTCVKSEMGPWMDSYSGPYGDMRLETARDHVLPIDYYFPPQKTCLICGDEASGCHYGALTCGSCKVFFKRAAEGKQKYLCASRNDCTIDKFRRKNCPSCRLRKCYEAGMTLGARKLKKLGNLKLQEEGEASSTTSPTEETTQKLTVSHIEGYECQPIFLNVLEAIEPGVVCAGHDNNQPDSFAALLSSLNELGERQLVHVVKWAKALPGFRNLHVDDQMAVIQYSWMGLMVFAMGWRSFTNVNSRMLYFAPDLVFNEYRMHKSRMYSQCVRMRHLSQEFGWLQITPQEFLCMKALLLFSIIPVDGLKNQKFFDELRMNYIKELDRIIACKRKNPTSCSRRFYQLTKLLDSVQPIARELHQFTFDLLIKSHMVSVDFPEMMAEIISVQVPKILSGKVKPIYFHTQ

Description for Androgen receptor: Antagonist activity at cloned androgen receptor-ligand binding domain expressed in african green monkey COS7 cells by two hybrid luciferase assay

Usually pIC50 stands for the IC50 on a negative log10 scale, so that one unit is a factor of ten. In the case of `CC1(C)OCC(=O)Nc2ccc(-c3cc(F)cc(C#N)c3)cc21`, the Activity with Rattus norvegicus came out at 50%. The pIC50 at Glucocorticoid receptor and against Androgen receptor was less than 5.52 throughout. Further, the Selectivity ratio in experiment [1], in experiment [2], in experiment [3] and in experiment [4] was greater than 100 each time.
As to `CCC1(c2ccco2)OCC(=O)Nc2ccc(-c3cc(F)cc(C#N)c3)cc21` (stereo unspecified), the Activity in the experiment on Rattus norvegicus came to 50%. Moreover, the pIC50 at Glucocorticoid receptor is 6.72; against Androgen receptor, 6.16.
Turning to `N#Cc1cc(F)cc(-c2ccc3c(c2)C(c2ccco2)(c2ccco2)OCC(=O)N3)c1`, the pIC50 is 5.89 at Glucocorticoid receptor and less than 5.52 at Androgen receptor. For the same compound, the Selectivity ratio in experiment [1], in experiment [2], in experiment [3] and in experiment [4] was greater than 100 throughout.
